According to patent publication US20240247080A1, “GLP1/GIP/NPY2 RECEPTOR TRIPLE AGONISTS” (Boehringer Ingelheim International GmbH, priority 2022, published 2024):
Like-named read-outs stand apart in the source and are kept apart here. Starred links: 1 amine or outer side, 2 acyl side, 3 side chain; linkers in the order of their positions; H or OH if unused. Non-standard residues stand in square brackets, D forms with d. Groups on a side chain read outwards from the residue. *: point of attachment. C20 diacid = O=C(O)CCCCCCCCCCCCCCCCCCC(=O)*; γGlu = O=C(O)[C@H](CCC(=O)[*:2])N[*:1]; εLys = N[C@@H](CCCCN[*:1])C(=O)[*:2]; hArg = N=C(N)NCCCC[C@H](N)C(=O)O; β3hQ = NC(=O)CC[C@H](N)CC(=O)O; Tle = CC(C)(C)[C@H](N)C(=O)O; Aib = CC(C)(N)C(=O)O

Tests used:
Format in all cases: cell-based
Details in all cases: CreLuc reporter gene assay
hNPY2R = biological target: T1, hNPY2R (Homo sapiens, UniProt P49146); assay: hNPY2R CreLuc reporter gene assay in 0.5% and 100% plasma
T1 construct: expressed in transfected cells; host or cells: HEK-293 cells carrying a CRE-luciferase reporter gene
T1 sequence (P49146 1-381): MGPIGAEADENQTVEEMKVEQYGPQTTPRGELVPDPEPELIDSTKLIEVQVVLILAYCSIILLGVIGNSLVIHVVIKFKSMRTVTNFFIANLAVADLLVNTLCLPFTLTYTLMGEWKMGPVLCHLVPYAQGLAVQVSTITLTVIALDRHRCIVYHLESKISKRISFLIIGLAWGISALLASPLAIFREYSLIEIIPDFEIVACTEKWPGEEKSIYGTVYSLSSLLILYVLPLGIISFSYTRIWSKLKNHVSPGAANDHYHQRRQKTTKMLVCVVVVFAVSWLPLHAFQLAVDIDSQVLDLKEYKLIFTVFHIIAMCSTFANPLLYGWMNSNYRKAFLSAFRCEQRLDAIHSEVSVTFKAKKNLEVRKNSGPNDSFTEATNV
Outline: (§1)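 HEK cells (GLP-1R, NPY2R) or CHO cells (GIPR) carrying a CRE-luciferase reporter, incubated 4 h at 37 °C with peptides in HBSS/20 mM HEPES pH 7.4 plus 0.5% human plasma, or in 100% plasma. Luminescence read; EC50 from 8-point variable-slope sigmoid fits.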

hGIPR = biological target: T2, hGIPR (Homo sapiens, UniProt P48546); assay: hGIPR CreLuc reporter gene assay in 0.5% and 100% plasma
T2 construct: expressed in transfected cells; host or cells: CHO cells carrying a CRE-luciferase reporter gene
T2 sequence (P48546 22-466): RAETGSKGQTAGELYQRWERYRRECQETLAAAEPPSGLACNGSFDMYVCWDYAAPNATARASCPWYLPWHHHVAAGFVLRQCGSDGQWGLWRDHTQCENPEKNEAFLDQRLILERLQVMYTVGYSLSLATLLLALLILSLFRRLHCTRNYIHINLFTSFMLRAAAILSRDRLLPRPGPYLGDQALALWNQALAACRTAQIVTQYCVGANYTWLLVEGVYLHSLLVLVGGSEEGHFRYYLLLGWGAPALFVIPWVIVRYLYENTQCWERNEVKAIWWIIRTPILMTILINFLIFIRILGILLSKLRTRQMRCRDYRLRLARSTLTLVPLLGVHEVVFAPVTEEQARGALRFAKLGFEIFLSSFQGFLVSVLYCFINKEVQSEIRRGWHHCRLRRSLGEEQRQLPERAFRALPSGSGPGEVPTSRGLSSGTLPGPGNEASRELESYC
Outline: as §1

hGLP1R = biological target: T3, hGLP1R (Homo sapiens, UniProt P43220); assay: hGLP1R CreLuc reporter gene assay in 0.5% and 100% plasma
T3 construct: expressed in transfected cells; host or cells: HEK-293 cells carrying a CRE-luciferase reporter gene
Outline: as §1

[1] = 0.5% human plasma, read-out: hNPY2R 0.5% hP
[2] = 100% human plasma, read-out: hNPY2R 100% hP
[3] = 0.5% human plasma, read-out: hGIPR 0.5% hP
[4] = 0.5% human plasma, read-out: hGLP1R 0.5% hP
[5] = 100% human plasma, read-out: hGIPR 100% hP

T3 sequence (P43220 24-463): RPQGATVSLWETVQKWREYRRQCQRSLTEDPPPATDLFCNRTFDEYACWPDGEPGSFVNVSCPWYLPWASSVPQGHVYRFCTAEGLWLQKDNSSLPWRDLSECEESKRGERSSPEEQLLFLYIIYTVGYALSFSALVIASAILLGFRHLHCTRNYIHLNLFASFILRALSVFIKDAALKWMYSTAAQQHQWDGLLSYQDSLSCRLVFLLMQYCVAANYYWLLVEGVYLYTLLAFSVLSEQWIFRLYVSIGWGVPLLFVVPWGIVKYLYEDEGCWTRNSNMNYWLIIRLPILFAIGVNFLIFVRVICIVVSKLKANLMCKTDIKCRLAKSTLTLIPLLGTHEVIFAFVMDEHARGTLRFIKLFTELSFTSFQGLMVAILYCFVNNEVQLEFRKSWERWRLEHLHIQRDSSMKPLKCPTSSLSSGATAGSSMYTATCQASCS

| Substance | EC50 (hNPY2R; [1]) [nM] | EC50 (hNPY2R; [2]) [nM] | EC50 (hGIPR; [3]) [nM] | EC50 (hGLP1R; [4]) [nM] | EC50 (hGIPR; [5]) [nM] | EC50 (hGLP1R; 100% human plasma, read-out: hGLP1R 100% hP) [nM] |
| --- | --- | --- | --- | --- | --- | --- |
| H-Y[Aib]EGTFTSDYSI[Aib]LEKQAQ[Aib]AFVEWLIK([εLys-γGlu-γGlu-γGlu-γGlu-γGlu-γGlu-C20 diacid])GGPSSGALLRHYYNWLTRQRY-NH2 [Compound 197, Y-Aib-E-G-T-F-T-S-D-Y-S-I-Aib-L-E-K-Q-A-Q-Aib-A-F-V-E-W-L-I-K(1,3)-GGPSSGALLRHYYNWLTRQRY-NH2.C20DA-gGlu-gGlu-gGlu-gGlu-gGlu-gGlu-eLys(1,2)] | 42.6 | 157 | 0.43 | 0.31 | – | – |
| H-Y[Aib]EGTFTSDYSI[Aib]LEKQAQ[Aib]AFVEWLIK([εLys-γGlu-γGlu-γGlu-γGlu-γGlu-γGlu-C20 diacid])GGPSSGASIRHYYNWLTRQRY-NH2 [Compound 132, Y-Aib-E-G-T-F-T-S-D-Y-S-I-Aib-L-E-K-Q-A-Q-Aib-A-F-V-E-W-L-I-K(1,3)-GGPSSGASIRHYYNWLTRQRY-NH2.C20DA-gGlu-gGlu-gGlu-gGlu-gGlu-gGlu-eLys(1,2)] | – | 45.4 | 0.22 | 0.14 | – | – |
| H-Y[Aib]EGTFTSDYSI[Aib]LEKQAQ[Aib]AFVEWLIK([εLys-γGlu-γGlu-γGlu-γGlu-γGlu-γGlu-C20 diacid])GGPSSGASLLHYYNWLTRQRY-NH2 [Compound 210, Y-Aib-E-G-T-F-T-S-D-Y-S-I-Aib-L-E-K-Q-A-Q-Aib-A-F-V-E-W-L-I-K(1,3)-GGPSSGASLLHYYNWLTRQRY-NH2.C20DA-gGlu-gGlu-gGlu-gGlu-gGlu-gGlu-eLys(1,2)] | 54.1 | – | 0.28 | 0.19 | – | – |
| H-Y[Aib]EGTFTSDYSI[Aib]LEKQAQ[Aib]AFVEWLIK([εLys-γGlu-γGlu-γGlu-γGlu-γGlu-γGlu-C20 diacid])GGPSSGASLRHYINWLTRQRY-NH2 [Compound 106, Y-Aib-E-G-T-F-T-S-D-Y-S-I-Aib-L-E-K-Q-A-Q-Aib-A-F-V-E-W-L-I-K(1,3)-GGPSSGASLRHYINWLTRQRY-NH2.C20DA-gGlu-gGlu-gGlu-gGlu-gGlu-gGlu-eLys(1,2)] | 20.5 | – | 0.26 | 0.14 | – | – |
| H-Y[Aib]EGTFTSDYSI[Aib]LEKQAQ[Aib]AFVEWLIK([εLys-γGlu-γGlu-γGlu-γGlu-γGlu-γGlu-C20 diacid])GGPSSGASLRHYLNL[Aib]TRQRY-NH2 [Compound 17, Y-Aib-E-G-T-F-T-S-D-Y-S-I-Aib-L-E-K-Q-A-Q-Aib-A-F-V-E-W-L-I-K(1,3)-G-G-P-S-S-G-A-S-L-R-H-Y-L-N-L-Aib-T-R-Q-R-Y-NH2.C20DA-gGlu-gGlu-gGlu-gGlu-gGlu-gGlu-eLys(1,2)] | > 100 | – | 0.43 | 0.14 | – | – |
| H-Y[Aib]EGTFTSDYSI[Aib]LEKQAQ[Aib]AFVEWLIK([εLys-γGlu-γGlu-γGlu-γGlu-γGlu-γGlu-C20 diacid])GGPSSGASLRHYYNL[Aib]TRQRY-NH2 [Compound 79, Y-Aib-E-G-T-F-T-S-D-Y-S-I-Aib-L-E-K-Q-A-Q-Aib-A-F-V-E-W-L-I-K(1,3)-G-G-P-S-S-G-A-S-L-R-H-Y-Y-N-L-Aib-T-R-Q-R-Y-NH2.C20DA-gGlu-gGlu-gGlu-gGlu-gGlu-gGlu-eLys(1,2)] | 87.6 | – | 0.29 | 0.11 | 1.86 | – |
| H-Y[Aib]EGTFTSDYSI[Aib]LEKQAQ[Aib]AFVEWLIK([εLys-γGlu-γGlu-γGlu-γGlu-γGlu-γGlu-C20 diacid])GGPSSGASLRHYYNWLTRQR[Tle]-NH2 [Compound 191, Y-Aib-E-G-T-F-T-S-D-Y-S-I-Aib-L-E-K-Q-A-Q-Aib-A-F-V-E-W-L-I-K(1,3)-GGPSSGASLRHYYNWLTRQR-Tle-NH2.C20DA-gGlu-gGlu-gGlu-gGlu-gGlu-gGlu-eLys(1,2)] | > 99.9 | > 999 | 0.23 | 0.17 | 2 | – |
| H-Y[Aib]EGTFTSDYSI[Aib]LEKQAQ[Aib]AFVEWLIK([εLys-γGlu-γGlu-γGlu-γGlu-γGlu-γGlu-C20 diacid])GGPSSGASLRHYYNWLTR[β3hQ]RY-NH2 [Compound 208, Y-Aib-E-G-T-F-T-S-D-Y-S-I-Aib-L-E-K-Q-A-Q-Aib-A-F-V-E-W-L-I-K(1,3)-G-G-P-S-S-G-A-S-L-R-H-Y-Y-N-W-L-T-R-bHGln-R-Y-NH2.C20DA-gGlu-gGlu-gGlu-gGlu-gGlu-gGlu-eLys(1,2)] | > 100 | > 1000 | 0.07 | 0.11 | 0.81 | – |
| H-Y[Aib]EGTFTSDYSI[Aib]LEKQAQ[Aib]AFVEWLIK([εLys-γGlu-γGlu-γGlu-γGlu-γGlu-γGlu-C20 diacid])GGPSSGASLRHYYNWLT[hArg]QR[dY]-NH2 [Compound 71, Y-Aib-E-G-T-F-T-S-D-Y-S-I-Aib-L-E-K-Q-A-Q-Aib-A-F-V-E-W-L-I-K(1,3)-G-G-P-S-S-G-A-S-L-R-H-Y-Y-N-W-L-T-hArg-Q-R-DTyr-NH2.C20DA-gGlu-gGlu-gGlu-gGlu-gGlu-gGlu-eLys(1,2)] | > 100 | > 1000 | 0.13 | 0.14 | 0.64 | 1.13 |
| H-Y[Aib]EGTFTSDYSI[Aib]LEKQAQ[Aib]AFVEWLIK([εLys-γGlu-γGlu-γGlu-γGlu-γGlu-γGlu-C20 diacid])GGPSSGASLRHYY[Aib]WLTRQRY-NH2 [Compound 213, Y-Aib-E-G-T-F-T-S-D-Y-S-I-Aib-L-E-K-Q-A-Q-Aib-A-F-V-E-W-L-I-K(1,3)-G-G-P-S-S-G-A-S-L-R-H-Y-Y-Aib-W-L-T-R-Q-R-Y-NH2.C20DA-gGlu-gGlu-gGlu-gGlu-gGlu-gGlu-eLys(1,2)] | > 100 | > 1000 | 0.34 | 0.16 | 1.53 | – |
| H-Y[Aib]EGTFTSDYSI[Aib]LEKQAQ[Aib]AFVEWLIK([εLys-γGlu-γGlu-γGlu-γGlu-γGlu-γGlu-C20 diacid])GGPSSGASLRHY[Aib]NR[Aib]TRQRY-NH2 [Compound 18, Y-Aib-E-G-T-F-T-S-D-Y-S-I-Aib-L-E-K-Q-A-Q-Aib-A-F-V-E-W-L-I-K(1,3)-G-G-P-S-S-G-A-S-L-R-H-Y-Aib-N-R-Aib-T-R-Q-R-Y-NH2.C20DA-gGlu-gGlu-gGlu-gGlu-gGlu-gGlu-eLys(1,2)] | 85.7 | – | 0.36 | 0.12 | – | – |
| H-Y[Aib]EGTFTSDYSI[Aib]LEKQAQ[Aib]AFVEWLIK([εLys-γGlu-γGlu-γGlu-γGlu-γGlu-γGlu-C20 diacid])GGPSSGASLRHY[Aib]NWLTRQRY-NH2 [Compound 184, Y-Aib-E-G-T-F-T-S-D-Y-S-I-Aib-L-E-K-Q-A-Q-Aib-A-F-V-E-W-L-I-K(1,3)-G-G-P-S-S-G-A-S-L-R-H-Y-Aib-N-W-L-T-R-Q-R-Y-NH2.C20DA-gGlu-gGlu-gGlu-gGlu-gGlu-gGlu-eLys(1,2)] | 46 | – | 0.28 | 0.18 | 1.37 | – |
| H-Y[Aib]EGTFTSDYSI[Aib]LEKQAQ[Aib]AFVEWLIK([εLys-γGlu-γGlu-γGlu-γGlu-γGlu-γGlu-C20 diacid])GGPSSGASLRHY[Tle]NWLTRQRY-NH2 [Compound 133, Y-Aib-E-G-T-F-T-S-D-Y-S-I-Aib-L-E-K-Q-A-Q-Aib-A-F-V-E-W-L-I-K(1,3)-G-G-P-S-S-G-A-S-L-R-H-Y-Tle-N-W-L-T-R-Q-R-Y-NH2.C20DA-gGlu-gGlu-gGlu-gGlu-gGlu-gGlu-eLys(1,2)] | 14.1 | – | 0.48 | 0.16 | – | – |
